Measurements from ChEMBL document CHEMBL4627250, “Suitable fusion of N-terminal heptad repeats to achieve covalently stabilized potent N-peptide inhibitors of HIV-1 infection” (Bioorg Med Chem, 2020).

Experiment: Thermal stability of compound assessed as melting temperature at 10 uM
Type: physicochemical

| Substance | Tm [°C] |
| --- | --- |
| H-RIQQIEQKIHHIEQRIQQIEQLLQLTVWGIKQLQARIL-OH | 72 |
| H-RIQQIEQKIHHIEQRIQQIEQRIEAQQHLLQLTVWGIKQLQARIL-OH | 74 |
| H-RIQQIEQKIHHIEQRIQQIEQRISGIVQQQNNLLRIEAQQHLLQLTVWGIKQLQARIL-OH | 82 |
